Measurements as given in patent publication US20060199770A1, “Functionalized carbon nanotubes, a process for preparing the same and their use in medicinal chemistry” (priority 2003, published 2006).
Where no end group is shown, it is not given here.

Assays:
BALB/c mice = conditions: mouse, in vivo; cited from earlier work
mAb 21×27 = type: binding, mice
[1] = system: polyclonal mouse anti-FMDV peptide serum; type: binding

Substance	immunogenicity when injected alone with an adjuvant (BALB/c mice)	recognition by monoclonal antibodies (ELISA, FIG. 5B) (mAb 21×27)	recognition by polyclonal antibodies (ELISA, FIG. 5A) [1]
Ac-GSGVRGDFGSLAPRVARQL [FMDV 141-159 peptide]	not immunogenic		
Ac-CGSGVRGDFGSLAPRVARQL [free FMDV peptide]		recognized equally well	recognized equally well
